We go through 31 compounds from patent US6413975B1, “Purine derivatives having phosphodiesterase iv inhibition activity” (Euro-Celtique, S.A., priority 1999, dated 2002).

The test system of one data set is Type IV PDE. In words: PDE IV inhibition: hydrolysis of [3H]-cyclic AMP by isolated Type IV PDE. It is filed as biochemical, bovine. On the procedure: The Type IV PDE is isolated from bovine tracheal smooth muscle using a procedure similar to that previously described by Silver, P. J., Hamel, L. T., Perrone, M. H. Bentley, R. G. Bushover, C. R., Evans, D. B.: Eur. J. Pharmacol. 150:85,1988.(1). Briefly, smooth muscle from bovine trachea is minced and homogenized using a polytron in 10 volumes of an extraction buffer containinhg 10 mM Tris-acetate (pH 7.5), 2 mM magnesium chloride, 1 mM dithiothreitol and 2,000 units/ml of aprotinin. This and all subsequent procedures are performed at 0-4° C. The homogenate is sonicated and then centrifiged at 48,000×g for 30 minutes. The resulting supernatant is applied to a DEAE Trisacryl M column previously equilibrated with sodium acetate and dithiothreitol. After applications of the sample, the column is washed with sodium acetate/dithiothreitol, after which the different forms of PDE are eluted from the column using a linear Tris-HCl/NaCl gradient. Fractions containing Type IV PDE are collected, dialyzed and concentrated to 14% of the original volume. The concentrated fractions are diluted to 50% with ethylene glycol and stored at -20° C.
Enzyme activity is assessed by measuring the hydrolysis of [^3H]-cyclic AMP, as described by Thompson, W. J., Teraski, W. L., Epstein, P. N., Strada, S. J.: Adv. Cyclic Nucleotide Res. 10:69, 1979. The cyclic AMP concentration used in this assay is 0.2 μM, which approximates the Km value. Protein concentration is adjusted to ensure that no more than 15% of the available substrate is hydrolyzed during the incubation period.
All test compounds are dissolved in dimethyl sulfoxide (final concentration of 2.5%). This concentration of dimethyl sulfoxide inhibits enzyme activity by approximately 10%.

Data set [1] has as its system ovalbumin-sensitized guinea pigs (eosinophils in BAL). The data set can be described thus: Ovalbumin sensitization and challenge in guinea pigs, differential cell counts in bronchoalveolar lavage. The class given is in vivo, guinea pig. As to conditions: 5 mg/kg ip one hour prior to ovalbumin challenge; for % Eosinophils in BAL x ± se: BAL 24 hours after aerosol exposure; for % Inhibition: eosinophils in BAL versus vehicle. As for the experimental part: (i) The effect of test compounds in a model of bronchial hyperresponsiveness (BHR) and cellular infiltration in the guinea pig induced by ovalbumin (see, for example Morley et al, Agents and Actions, Supplement, 1988, 23, 187) were studied.
(ii) Sensitization and Challenge procedure: Male Dunkin Hartley guine pigs (Charles River) (200-250 g) were injected i.p. with ovalbumin (OVA) (0.5 ml/animal; 20 μg OVA in AlOH)3 (moist gel)); this preparation produced an injectable stable suspension containing excess Al(OH)3. Sham animals were injected with 0.5 ml Al(OH)3 alone. After a period of 18-21 days animals were exposed to an aerosol of OVA (100 μg/ml) for 1 hour in an exposure chamber.
(iii) Bronchoalveloar lavage: Animals were anaesthetized, 24 hours after aerosol exposure, with urethane (25%, w/v, 7 ml/kg, i.p.) and the trachea cannulated. Bronchoalveo-lar lavage (BAL) was performed by instilling 5 ml sterile saline into the lungs via the tracheal cannula and the fluid was immediately removed. The fluid was reinjected and the procedure repeated 5 times in total. […] Total cell counts were perfomed on the resultant BAL fluid using an improved Neubauer haemocytometer. Cytospin preparations were prepared using a Shandon Cytospin 2 centrifuge. Two drops of BAL fluid were added to each cytospin cup and the samples were centrifuged for 1 min at 1300 r.p.m. Slides were fixed in acetone and stained with haemotoxylin and carbol chromotrope according to the method described by Lendrum (Lendrum 1944), differential cell counts were performed on each slide by counting 200 cells at random, the cell types were classified as neutrophils, eosinophils and mononuclear cells according to standard morphological criteria. Cells were counted blind. The results are expressed as the number of neutrophils, eosinophils and mononuclear cells per ml of BAL fluid. The remaining BAL fluid was centrifuged (10 min., 1000 g) and the resultant cells and cell free supernatants were aliquotted and frozen for later assays. Compounds were solu-bilized in either DMSO or saline administered intraperitoreally at a dose of 5 mg/kg one hour prior to ovalbumin challenge.

Setting [2] is: dithioxanthines, Table 5, read-out: IC50 PDE IV.
The mark [3] stands for this setting: adenines, Table 4, cyclic AMP 0.2 μM, read-out: calc PDE IV IC50.
The mark [4] stands for this setting: adenines, Table 7, read-out: calc PDE IV IC50.
[5] abbreviates: thioisoguanines, Table 2, cyclic AMP 0.2 μM, read-out: Calc IC50 PDE IV.

Where a name gives a salt, the structure may show the parent alone. Read-outs that look alike come from different tables or passages of the source.

As a reminder, the melting point is the temperature, or range, at which the solid turns liquid. `COc1ccc(Cn2cnc(N)c3nc(C(C)(C)OCc4ccc(F)cc4)nc2-3)cc1OC` (as salt: hydrochloride) [6-Amino-3-(3,4-dimethoxybenzyl)-8-(1-(4-fluorobenzyloxy-1-methyl-ethyl)-3H-purine Hydrochloride] came in with a melting point of 172 to 175 °C. The compound `CCCCCCn1cnc(NCC)c2ncnc1-2` (as salt: hydrochloride) [6-Ethylamino-3-hexyl-3H-purine] returned a melting point of 190 to 195 °C. In general, % Inhibition refers to how much of the control response was suppressed. For `CCNc1ncn(Cc2ccc(OC)c(OC3CCCC3)c2)c2nc(C(C)C)nc1-2.Cl` [3-(3-Cyclopentyloxy-4-methoxybenzyl)-6-ethylamino-8-isopropyl-3H-purine Hydrochloride], the IC50 with Type IV PDE (read-out: PDE IV I50) is 320 nM. Further, in data set [1], the “% Eosinophils in BAL x ± se” value came to 12 ± 2% and the “% Inhibition” value worked out at 64%. On to `COc1ccc(Cn2c(=S)[nH]c(=S)c3[nH]c(C(C)C)nc32)cc1OC1CCCC1` [3-(3-cyclopentyloxy-4-methoxybenzyl)-3,7-dihydro-8-isopropyl-2,6-dithio-1H-purine-2,6-dione], for which, in the data set with Type IV PDE (setting [2]), the IC50 is 600 nM. Moreover, the IC50 with Type IV PDE (read-out: PDE IV I50) is 800 nM. Moreover, in data set [1], the “% Eosinophils in BAL x ± se” value was 17 ± 3% and the “% Inhibition” value was 47%. `CCNc1ncn(Cc2ccc(Cl)cc2)c2ncnc1-2.Cl` [3-(4-chlorobenzyl)-6-ethylamino-3H-purine hydrochloride] came in with a melting point of 251 to 254 °C. Further, the IC50 in the data set with Type IV PDE (setting [3]) is 37800 nM. `CCNc1ncn(Cc2ccc(Cl)cc2)c2nc(C(C)C)nc1-2` [3-(4-chlorobenzyl)-6-ethylamino-8-isopropyl-3H-purine] returned a melting point of 215 to 217 °C. In addition, in the data set on Type IV PDE (read-out: PDE IV I50), the IC50 amounted to 1130 nM. With `COc1ccc(Cn2cnc(N)c3nc(C(C)(C)OCc4ccc(F)cc4)nc2-3)cc1OC1CCCC1.Cl` [6-Amino-3-(3-cyclopentyloxy-4-methoxy-benzyl)-8-(1-(4-fluorobenzyloxy)-1-methyl-ethyl)-3H-purine hydrochloride], the melting point lay within 165 to 174 °C. In addition, the IC50 with Type IV PDE (setting [4]) was 34 nM. The compound `COc1ccc(Cn2cnc(N)c3nc(C(C)(C)OCc4ccccc4)nc2-3)cc1OC1CCCC1.Cl` [6-Amino-8-(1-benzyloxy-1-methyl-ethyl)-3-(3-cyclopentyloxy-4-methoxy-benzyl)-3H-purine Hydrochloride] displayed a melting point of 201 to 203 °C. Further, in the data set with Type IV PDE (setting [4]), the IC50 was 5 nM. In the case of `CCNc1nc(Cc2ccc(OC)c(OC)c2)[nH]c2nc(C(C)C)nc1-2` [6-ethylamino-2-(3,4-dimethoxybenzyl)-8-isopropyl-3H-purine], in the data set with Type IV PDE (setting [4]), the IC50 was 310 nM.

`CCNc1ncn(Cc2ccc3c(c2)OCO3)c2nc(C(C)C)nc1-2` [6-ethylamino-3-(3-,4-methylenedioxybenzyl)-8-isopropyl-3H-purine]: the IC50 in the data set with Type IV PDE (setting [4]) is 440 nM. With `CCNc1ncn(Cc2ccc(OC)c(O)c2)c2nc(C(C)C)nc1-2` [6-ethylamino-3-(3-hydroxy-4-methoxybenzyl)-8-isopropyl-3H-purine], the IC50 in the data set with Type IV PDE (setting [4]) was 2730 nM. The same measure, in the same setting: then `CCNc1ncn(Cc2ccc(F)cc2)c2nc(C(C)C)nc1-2` [6-ethylamino-3-(4-fluorobenzyl)-8-isopropyl-3H-purine], with 1850 nM. `CCNc1ncn(Cc2ccc(OC)c(OC3CCCC3)c2)c2nc(C(C)C)nc1-2` [6-ethylamino-3-[(3-cyclopentyloxy-4-methoxy)benzyl]-8-isopropyl-3H-purine]: the IC50 with Type IV PDE (setting [4]) was 660 nM.

`CCNc1ncn(Cc2ccc(OC)c(O)c2)c2nc(C(C)(C)O)nc1-2` [6-ethylamino-3-[(3-hydroxy-4-methoxy)benzyl]-8-[(1-hydroxy-1-methyl)ethyl]- -3H-purine]: the IC50 in the data set on Type IV PDE (setting [4]) is 6500 nM.

Take `CCNc1ncn(Cc2ccc(OC)cc2)c2nc(C(C)C)nc1-2` [6-ethylamino-8-isopropyl-3-(4-methoxybenzyl)-3H-purine]: the IC50 in the data set on Type IV PDE (setting [4]) was 1200 nM. For `CCNc1ncn(Cc2ccc(OC)c(OCCCCO)c2)c2nc(C(C)C)nc1-2` [6-ethylamino-8-isopropyl-3-[(4-methoxy-3-(4-hydroxybutoxy))benzyl]-3H-purine], in the data set on Type IV PDE (setting [4]), the IC50 is 1750 nM.

As for `CCNc1ncn(Cc2ccc(OC)c(OC3CCCC3)c2)c2nc(C(C)(C)OCc3ccccc3)nc1-2.Cl` [8-(1-Benzyloxy-1-methyl-ethyl)-3-(3-cyclopentyloxy-4-methoxy-benzyl)-6-ethylamino-3H-purine Hydrochloride], the melting point was 148 to 150 °C. Besides, the IC50 in the data set on Type IV PDE (setting [4]) was 850 nM. With `CCNc1ncn(CC)c2nc(Cc3ccc(OC)c(OC4CCCC4)c3)nc1-2` [8-(3-Cyclopentyloxy-4-methoxybenzyl)-3-ethyl-6-ethylamino-3H-purine Hydrochloride], the IC50 in the data set with Type IV PDE (setting [3]) was 4520 nM. In the case of `CCn1c(=S)c2[nH]c(C3CC3)nc2n(CC)c1=S` [8-cyclopropyl-3,7-dihydro-1,3-diethyl-2,6-dithio-1H-purin-2,6-dione], in the data set on Type IV PDE (read-out: PDE IV I50), the IC50 amounted to 420 nM.

With `CC(C)CCn1c(=S)[nH]c(=S)c2[nH]c(C3CC3)nc21` [8-cyclopropyl-3,7-dihydro-3-(3-methylbutyl)-2,6-dithio-1H-purine-2,6-dione], the IC50 in the data set on Type IV PDE (setting [2]) was 6310 nM. On to `CCn1c(=S)[nH]c(=S)c2[nH]c(C3CC3)nc21` [8-cyclopropyl-3,7-dihydro-3-ethyl-2,6-dithio-1H-purine-2,6-dione], for which the IC50 in the data set with Type IV PDE (setting [2]) was found to be 6180 nM. Turning to `CCCn1c(=S)[nH]c(=S)c2[nH]c(C3CC3)nc21` [8-cyclopropyl-3,7-dihydro-3-propyl-2,6-dithio-1H-purine-2,6-dione], the IC50 in the data set on Type IV PDE (setting [2]) turned out to be 64500 nM. For `CCCn1c(=S)nc(NCc2ccncc2)c2[nH]c(C3CC3)nc21` [8-cyclopropyl-3,7-dihydro-3-propyl-6-(4-pyridyl-methylamino)-2-thio-2H-purin-2-one], the IC50 in the data set on Type IV PDE (read-out: PDE IV I50) turned out to be 410 nM. `CCCn1c(=S)nc(NCCO)c2[nH]c(C3CC3)nc21` [8-cyclopropyl-3,7-dihydro-6-(2-hydroxyethylamino)-3-propyl-2-thio-2H-purin-2-one]: the IC50 with Type IV PDE (read-out: PDE IV I50) was 4480 nM; in the data set on Type IV PDE (setting [5]) it was 53800 nM. Regarding `S=c1[nH]c(=S)n(CC2CC2)c2nc(C3CC3)[nH]c12` [8-cyclopropyl-3-cyclopropylmethyl-3,7-dihydro-2,6-dithio-1H-purine-2,6-dione], the IC50 in the data set on Type IV PDE (setting [2]) came to 2270 nM.

For the compound `CCNc1ncn(CC2CC2)c2nc(C3CC3)nc1-2` [8-cyclopropyl-3-cyclopropylmethyl-6-ethylamino-3H-purine hydrochloride], in the data set with Type IV PDE (setting [3]), the IC50 is 4110 nM. For `CCNc1nc(=S)n(CC)c2nc(C3CC3)[nH]c12` [8-cyclopropyl-3-ethyl-6-ethylamino-3,7-dihydro-2-thio-2H-purin-2-one], the IC50 in the data set on Type IV PDE (setting [5]) was 13600 nM. For the compound `CCCNc1nc(=S)n(CC)c2nc(C3CC3)[nH]c12` [8-cyclopropyl-3-ethyl-6-propylamino-2-thio-2H-purin-2-one], the IC50 in the data set on Type IV PDE (setting [5]) was 8480 nM.

With `CCCNc1ncn(CC)c2nc(C3CC3)nc1-2` [8-cyclopropyl-3-ethyl-6-propylamino-3H-purine hydrochloride], in the data set with Type IV PDE (setting [3]), the IC50 is 15700 nM. In the case of `CCCn1cnc(NC2CC2)c2nc(C3CC3)nc1-2` [8-cyclopropyl-6-cyclopropylamino-3-propyl-3H-purine hydrochloride], the IC50 with Type IV PDE (setting [3]) is 7900 nM. On the same count and under the same terms, then `CCCn1cnc(NCC)c2nc(C3CC3)nc1-2` [8-cyclopropyl-6-ethylamino-3-propyl-3H-purine hydrochloride], with 6310 nM.
